Laboratory results published in patent US5189169A (priority 1991, dated 1993).
Several values for one entry are separate records, joined by “and”; a condition that tells them apart may be missing. Identical values can stand only once.

What was measured:
Conditions in all cases: in vivo
yellow nutsedge [1] = tested on: yellow nutsedge; parameters: species or system Cyperus esculentus
[2] = tested on: three grassy weeds (wild oat, watergrass, foxtail); parameters: species or system Avena fatua, Echinochloa crusgalli, Setaria viridis
[3] = tested on: three broadleaf weeds (morning glory, mustard, velvetleaf); parameters: species or system Ipomoea purpurea, Brassica kaber, Abutilon theophrasti
[4] = tested on: three grassy weeds (wild oat, watergrass, foxtail); parameters: species or system Avena fatua, Echinochloa crusgalli, Setaria viridis; remark: listed apart in the source
yellow nutsedge [5] = tested on: yellow nutsedge; parameters: species or system Cyperus esculentus; remark: listed apart in the source
[6] = tested on: three broadleaf weeds (morning glory, mustard, velvetleaf); parameters: species or system Ipomoea purpurea, Brassica kaber, Abutilon theophrasti; remark: listed apart in the source

SMILES | % Control, Pre-emergence, NS (yellow nutsedge [1]) [%] | % Control, Post-emergence, GR avg. [2] | % Control, Post-emergence, BL avg. [3] | % Control, Pre-emergence, GR avg. [4] [%] | % Control, Post-emergence, NS (yellow nutsedge [5]) | % Control, Pre-emergence, BL avg. [6] [%]
CCCSP(=O)(N(CCC)CCC)N(C)c1cc(F)c(F)cc1F (stereo not drawn) [Compound 48] | 0 | 80% and 40% | 90% and 80% | 0 | 0% | 0
CCCSP(=O)(N(CCC)CCC)N(CCC)c1ccccc1C(C)C (stereo not drawn) [Compound 57] | 0 | 20% and 16% | 70% and 60% | 0 | 0% | 0
CCCCSP(=O)(N(CCC)CCC)N(CCC)CCC [Compound 1] | 0 | 90% and 85% | 90% and 100% | 2 | 10% and 5% | 50
CCCSP(=O)(N(CCC)CCC)N(C)c1ccc(OC)cc1 (stereo not drawn) [Compound 36] | 0 | 10% | 100% | 0 | 0% | 0
CCCCN(c1ccccc1)P(=O)(SCCC)N(CCC)CCC (stereo not drawn) [Compound 24] | 0 | 30% and 23% | 80% and 73% | 0 | 10% and 0% | 33
CCCCN(CCCC)P(=O)(SCCC)N(C)c1ccc(OC)cc1 (stereo not drawn) [Compound 11] | 9 | 30% and 50% | 60% and 70% | 0 | 10% and 0% | 0
CCCSP(=O)(N(CCC)CCC)N(CCC)c1ccc(Cl)cc1C (stereo not drawn) [Compound 61] | 0 | 50% and 38% | 80% and 76% | 0 | 0% | 3
